The values below come from US12509444B2, “Compounds and methods for CD73 modulation and indications therefor” (Plexxikon Inc., priority 2019, dated 2025).

The target in assay [1] is T1, Human CD73 (amino acid residues 27-549) (Homo sapiens, UniProt P21589).
T1 construct: Human CD73 (amino acid residues 27-549); His tag (N); made in house; host or cells: E. coli
T1 sequence (P21589 27-549): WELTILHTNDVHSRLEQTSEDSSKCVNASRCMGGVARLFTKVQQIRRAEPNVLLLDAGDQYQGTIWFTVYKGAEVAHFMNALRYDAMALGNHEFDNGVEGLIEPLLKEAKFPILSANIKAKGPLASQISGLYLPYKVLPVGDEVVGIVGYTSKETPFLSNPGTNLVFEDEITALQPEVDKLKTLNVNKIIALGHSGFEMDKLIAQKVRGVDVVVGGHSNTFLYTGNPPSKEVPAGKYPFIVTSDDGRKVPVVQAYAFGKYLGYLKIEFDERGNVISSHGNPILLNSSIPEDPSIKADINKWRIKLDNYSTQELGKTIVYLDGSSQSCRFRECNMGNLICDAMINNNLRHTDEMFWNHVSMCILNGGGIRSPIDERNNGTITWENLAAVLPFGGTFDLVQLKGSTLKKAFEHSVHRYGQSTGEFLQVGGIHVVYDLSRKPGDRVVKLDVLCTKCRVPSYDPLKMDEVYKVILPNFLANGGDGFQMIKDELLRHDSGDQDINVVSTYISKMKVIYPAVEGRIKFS
Description: CD73 enzymatic assay (luciferase-based indirect assay, CellTiter-Glo). Format: biochemical. The conditions noted are these: 0.4 nM CD73, 150 μM AMP, 1 hour at room temperature. In outline:
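His-tagged human CD73 (27-549) from E. coli, 0.4 nM, with 150 μM AMP in 50 mM HEPES pH 7.4, 0.01% Tween 20; 1 h at room temperature. AMP remaining read by CellTiter-Glo 2.0 luminescence with 1 μM final ATP after 30 min. IC50 from nonlinear regression of % inhibition.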

The target of a further assay is T2, human CD73 (Homo sapiens, UniProt P21589).
T2 construct: expressed in transfected cells
T2 sequence (P21589 27-549): T1 sequence (P21589 27-549)
Description: Inhibitor activity against CD73 in cell based assay (CD73 expressing CHO-K1 cells). The conditions noted are these: CHO-K1 cells expressing human CD73, 150 μM AMP, 4 hours of incubation; read-out: CHO-K1 CELL VARIANT: CD73 IC50. In outline:
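Stably transfected CHO-K1 cells expressing human CD73 (1×10^4/well) incubated 4 h with compound (8-point 1:3 titration, top 10 μM final, 0.2% DMSO) and 150 μM AMP. Residual AMP in supernatant measured by CellTiter-Glo luminescence with 1 μM ATP after 30 min at room temperature; IC50 by nonlinear regression of percent inhibition vs high/low controls.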

As for `O=C(NCC1CCCCC1)O[C@@H]1CCN(c2cn[nH]c(=O)c2Cl)C1` [P-0233, (R)-1-(5-chloro-6-oxo-1,6-dihydropyridazin-4-yl)pyrrolidin-3-yl (cyclohexylmethyl)carbamate], the IC50 (in assay [1]; on human CD73) was 0.001 to 10 µM each time.

For `O=C(NCCC1CCCC1)O[C@@H]1CCN(c2cn[nH]c(=O)c2Cl)C1` [P-0234, (R)-1-(5-chloro-6-oxo-1,6-dihydropyridazin-4-yl)pyrrolidin-3-yl (2-cyclopentylethyl)carbamate], the IC50 (in assay [1]; at human CD73) was 0.001 to 10 µM in each case.

For the molecule `O=C(NCCCO)O[C@@H]1CCN(c2cn[nH]c(=O)c2Cl)C1` [P-0235, (R)-1-(5-chloro-6-oxo-1,6-dihydropyridazin-4-yl)pyrrolidin-3-yl (3-hydroxypropyl)carbamate], the IC50 (in assay [1]; on human CD73) was 0.001 to 10 µM in each case.

`O=C(NCC1CCOCC1)O[C@@H]1CCN(c2cn[nH]c(=O)c2Cl)C1` [P-0236, (R)-1-(5-chloro-6-oxo-1,6-dihydropyridazin-4-yl)pyrrolidin-3-yl ((tetrahydro-2H-pyran-4-yl)methyl)carbamate]: the IC50 (in assay [1]; on human CD73) was 0.001 to 10 µM each time.

For the molecule `O=C(N[C@@H]1CC[C@H](NS(=O)(=O)c2ccccc2F)C1)O[C@@H]1CCN(c2cn[nH]c(=O)c2Cl)C1` [P-0237, (R)-1-(5-chloro-6-oxo-1,6-dihydropyridazin-4-yl)pyrrolidin-3-yl ((1R,3S)-3-((2-fluorophenyl)sulfonamido)cyclopentyl)carbamate], the IC50 (in assay [1]; on human CD73) was 0.001 to 10 µM throughout.

On to `Cn1ncc(N2CC[C@@H](OC(=O)N[C@H]3CC[C@H](NS(=O)(=O)c4c(F)cccc4F)CC3)C2)c(Cl)c1=O` [P-0238, (R)-1-(5-chloro-1-methyl-6-oxo-1,6-dihydropyridazin-4-yl)pyrrolidin-3-yl ((1r,4R)-4-((2,6-difluorophenyl)sulfonamido)cyclohexyl)carbamate], for which the IC50 (in assay [1]; at human CD73) was 0.001 to 10 µM throughout.

On to `Cn1ncc(N2CC[C@@H](OC(=O)N[C@H]3CC[C@H](NS(=O)(=O)c4ccccc4Br)CC3)C2)c(Cl)c1=O` [P-0239, (R)-1-(5-chloro-1-methyl-6-oxo-1,6-dihydropyridazin-4-yl)pyrrolidin-3-yl ((1r,4R)-4-((2-bromophenyl)sulfonamido)cyclohexyl)carbamate], for which the IC50 (in assay [1]; on human CD73) was 0.001 to 10 µM throughout.

Consider `O=C(NCC1CCNCC1)O[C@@H]1CCN(c2cn[nH]c(=O)c2Cl)C1` [P-0240, (R)-1-(5-chloro-6-oxo-1,6-dihydropyridazin-4-yl)pyrrolidin-3-yl (piperidin-4-ylmethyl)carbamate], for which the half-inhibitory concentration (IC50) (in assay [1]; on human CD73) was 0.001 to 10 µM throughout.

Consider `CC(=O)N1CCC(CNC(=O)O[C@@H]2CCN(c3cn[nH]c(=O)c3Cl)C2)CC1` [P-0241, (R)-1-(5-chloro-6-oxo-1,6-dihydropyridazin-4-yl)pyrrolidin-3-yl ((1-acetylpiperidin-4-yl)methyl)carbamate], for which the IC50 (in assay [1]; at human CD73) was 0.001 to 10 µM each time.

Regarding `O=CN1CCC(CNC(=O)O[C@@H]2CCN(c3cn[nH]c(=O)c3Cl)C2)CC1` [P-0242, (R)-1-(5-chloro-6-oxo-1,6-dihydropyridazin-4-yl)pyrrolidin-3-yl ((1-formylpiperidin-4-yl)methyl)carbamate], the 50% inhibitory concentration (IC50) (in assay [1]; on human CD73) was 0.001 to 10 µM each time.

With `O=C(N[C@@H]1CC[C@H](NC(=O)c2ccccc2)C1)O[C@@H]1CCN(c2cn[nH]c(=O)c2Cl)C1` [P-0243, (R)-1-(5-chloro-6-oxo-1,6-dihydropyridazin-4-yl)pyrrolidin-3-yl ((1R,3S)-3-benzamidocyclopentyl) carbamate], the IC50 (in assay [1]; on human CD73) was 0.001 to 10 µM each time.

As for `COC(=O)Cn1ncc(N2CC[C@@H](OC(=O)NC3CCC(F)(F)CC3)C2)c(Cl)c1=O` [P-0244, methyl (R)-2-(5-chloro-4-(3-(((4,4-difluorocyclohexyl)carbamoyl)oxy)pyrrolidin-1-yl)-6-oxopyridazin-1(6H)-yl)acetate], the figures for the IC50 (in assay [1]; on human CD73) were 0.001 to 10 µM and 10 to 100 µM, respectively.

Regarding `COCCn1ncc(N2CC[C@@H](OC(=O)NC3CCC(F)(F)CC3)C2)c(Cl)c1=O` [P-0245, (R)-1-(5-chloro-1-(2-methoxyethyl)-6-oxo-1,6-dihydropyridazin-4-yl)pyrrolidin-3-yl (4,4-difluorocyclohexyl)carbamate], the results for the IC50 (in assay [1]; at human CD73) were 0.001 to 10 µM and 10 to 100 µM, respectively.

Turning to `O=C(NC1CCC(F)(F)CC1)O[C@@H]1CCN(c2cnn(CC(O)CO)c(=O)c2Cl)C1` (stereo partly drawn) [P-0246, (3R)-1-(5-chloro-1-(2,3-dihydroxypropyl)-6-oxo-1,6-dihydropyridazin-4-yl)pyrrolidin-3-yl (4,4-difluorocyclohexyl)carbamate], the IC50 (in assay [1]; at human CD73) was 0.001 to 10 µM throughout.

With `CCS(=O)(=O)N[C@H]1CC[C@H](NC(=O)O[C@@H]2CCN(c3cn[nH]c(=O)c3Cl)C2)CC1` [P-0247, (R)-1-(5-chloro-6-oxo-1,6-dihydropyridazin-4-yl)pyrrolidin-3-yl ((1r,4R)-4-(ethylsulfonamido)cyclohexyl) carbamate], the IC50 (in assay [1]; at human CD73) was 0.001 to 10 µM throughout.

On to `N#Cc1ccc(S(=O)(=O)N[C@H]2CC[C@H](NC(=O)O[C@@H]3CCN(c4cn[nH]c(=O)c4Cl)C3)CC2)cc1` [P-0248, (R)-1-(5-chloro-6-oxo-1,6-dihydropyridazin-4-yl)pyrrolidin-3-yl ((1r,4R)-4-((4-cyanophenyl)sulfonamido)cyclohexyl)carbamate], for which the IC50 (in assay [1]; at human CD73) was 0.001 to 10 µM in each case.

Consider `Cc1cccc(S(=O)(=O)N[C@H]2CC[C@H](NC(=O)O[C@@H]3CCN(c4cn[nH]c(=O)c4Cl)C3)CC2)c1` [P-0249, (R)-1-(5-chloro-6-oxo-1,6-dihydropyridazin-4-yl)pyrrolidin-3-yl ((1r,4R)-4-((3-methylphenyl)sulfonamido)cyclohexyl)carbamate], for which the IC50 (in assay [1]; at human CD73) was 0.001 to 10 µM throughout.

In the case of `Cc1ccccc1S(=O)(=O)N[C@H]1CC[C@H](NC(=O)O[C@@H]2CCN(c3cn[nH]c(=O)c3Cl)C2)CC1` [P-0250, (R)-1-(5-chloro-6-oxo-1,6-dihydropyridazin-4-yl)pyrrolidin-3-yl ((1r,4R)-4-((2-methylphenyl)sulfonamido)cyclohexyl)carbamate], the IC50 (in assay [1]; at human CD73) was 0.001 to 10 µM throughout.

For `COc1ccc(S(=O)(=O)N[C@H]2CC[C@H](NC(=O)O[C@@H]3CCN(c4cn[nH]c(=O)c4Cl)C3)CC2)cc1` [P-0251, (R)-1-(5-chloro-6-oxo-1,6-dihydropyridazin-4-yl)pyrrolidin-3-yl ((1r,4R)-4-((4-methoxyphenyl)sulfonamido)cyclohexyl)carbamate], the IC50 (in assay [1]; on human CD73) was 0.001 to 10 µM each time.

For the molecule `COc1ccc(S(=O)(=O)N[C@H]2CC[C@H](NC(=O)O[C@@H]3CCN(c4cn[nH]c(=O)c4Cl)C3)CC2)cn1` [P-0252, (R)-1-(5-chloro-6-oxo-1,6-dihydropyridazin-4-yl)pyrrolidin-3-yl ((1r,4R)-4-((6-methoxypyridine)-3-sulfonamido)cyclohexyl) carbamate], the IC50 (in assay [1]; on human CD73) was 0.001 to 10 µM throughout.

In the case of `O=C(N[C@H]1CC[C@H](NS(=O)(=O)c2ccc(C(F)(F)F)nc2)CC1)O[C@@H]1CCN(c2cn[nH]c(=O)c2Cl)C1` [P-0253, (R)-1-(5-chloro-6-oxo-1,6-dihydropyridazin-4-yl)pyrrolidin-3-yl ((1r,4R)-4-((6-(trifluoromethyl)pyridine)-3-sulfonamido)cyclohexyl) carbamate], the IC50 (in assay [1]; at human CD73) was 0.001 to 10 µM in each case.

Turning to `O=C(N[C@H]1CC[C@H](NS(=O)(=O)c2ccc(C(F)(F)F)cc2)CC1)O[C@@H]1CCN(c2cn[nH]c(=O)c2Cl)C1` [P-0254, (R)-1-(5-chloro-6-oxo-1,6-dihydropyridazin-4-yl)pyrrolidin-3-yl ((1r,4R)-4-((4-(trifluoromethyl)phenyl)sulfonamido)cyclohexyl)carbamate], the IC50 (in assay [1]; on human CD73) was 0.001 to 10 µM in each case.

For `Cn1cc(S(=O)(=O)N[C@H]2CC[C@H](NC(=O)O[C@@H]3CCN(c4cn[nH]c(=O)c4Cl)C3)CC2)cn1` [P-0255, (R)-1-(5-chloro-6-oxo-1,6-dihydropyridazin-4-yl)pyrrolidin-3-yl ((1r,4R)-4-((1-methyl-1H-pyrazole)-4-sulfonamido)cyclohexyl) carbamate], the concentration for half-maximal inhibition (IC50) (in assay [1]; at human CD73) was 0.001 to 10 µM throughout.
